The subject of experiment [1] is overt diabetic NOD (Non-Obese Diabetic) mice. The settings on record: previously overt diabetic NOD mice; literature study; cited from earlier work.
In another experiment the test system is human islets. The conditions noted are these: previously published; cited from earlier work.
The subject of experiment [2] is non-obese diabetic (NOD) mice. As to the kind of experiment: Reversal of established diabetes in NOD mice, blood glucose monitoring, 28-day osmotic mini-pump. Format: in vivo, mouse. The settings on record: LSF 27 mg/kg/day, Ex-4 18 nM/day. Here is the method:
FIG. 4 depicts average levels of blood glucose in 4 NOD mice groups treated with saline (control), Ex-4 alone, LSF alone and LSF and Ex-4 combined, respectively.
Pre-diabetic non-obese diabetic (NOD) mice were monitored until two consecutive blood glucose readings within a week were above 250 mg/dL. This indicated the animals had already become diabetic. At this point a mini-osmotic pump was filled with one of the following and implanted subcutaneously: • Normal saline (control) • Ex-4 • LSF • Ex-4 and LSF
Blood glucose levels in these mice were monitored, and a small dose of insulin was administered to the hyperglycemic mice to maintain euglycemia for the first few days. The pump was removed after 28 days, discontinuing treatment with the drug; however, the blood glucose levels were continually monitored for several more weeks. These mice were then sacrificed, and slide sections were prepared from their pancreases to evaluated histology and insulin staining (Example 5) and evidence for growth the new beta cells (Example 6).
These NOD were spontaneously diabetic between 20-25 weeks of age. The control groups include normal saline, LSF alone (27 mg/kg/day) and Ex-4 alone (18 nM/day). […] Four mice were in each group. Diabetes reversal was seen within 2-3 days after implantation of LSF/Ex-4 pumps, while hyperglycemia was controlled 10-12 days after LSF alone pump therapy.

A further experiment deals with murine β-cell lines. The settings on record: previously published; cited from earlier work.
Experiment [3] deals with mouse islets exposed to pro-inflammatory cytokines (IL-1β, TNF-α, IFN-γ). Description: Apoptosis of mouse islets exposed to pro-inflammatory cytokines. In kind it is cell-based. The settings on record: LSF 50 μM, Ex-4 20 nM; 10 ng/mL IL-1β, 20 ng/mL TNF-α, 100 ng/mL IFN-γ overnight. Here is the method: FIG. 2 depicts the effect in apoptosis reduction in isolated mouse islets after individual and combined treatment of LSF and Ex-4 in vitro.
(§1) For in vitro studies (Examples 1-3), freshly isolated BALB/c pancreatic islets were incubated at 37° C. with either LSF (50 μM) alone, Ex-4 (20 nM) alone, or with LSF/Ex-4 combined. After 3 days of culture, islets were treated with or without pro-inflammatory cytokines (10 ng/mL IL-1β, 20 ng/mL TNF-α, and 100 ng/mL IFN-γ) overnight. Insulin secretion was measured in low and high glucose using a standard elisa method for mouse insulin. Apoptotic islets were quantitatively assessed. MTT assay was used to evaluate cell metabolism and mitochondrial function.
Cellular death (apoptosis) was quantified using an established method in mouse islets exposed to pro-inflammatory cytokines.

For experiment [4], the system named is NOD mouse pancreatic sections. Description: Brdu staining of NOD mouse pancreatic sections (cell proliferation in vivo). The settings on record: diabetic NOD mice treated 28 days via mini-pumps; Brdu 50 mg/kg I.P., tissue 24 hours later. Here is the method:
FIG. 6 depicts results of Brdu staining of NOD mouse pancreatic sections treated with saline (control), Ex-4 alone, LSF alone and LSF and Ex-4 combined, respectively.
Ex-4/LSF-associated cell proliferation in vivo was evaluated. Diabetic NOD mice that were treated with Ex-4 alone, Ex-4 plus LSF, LSF alone and normal saline for 28 days via mini-pumps were injected with Brdu (50 mg/kg) I.P. 24 hours later, pancreatic tissues were collected and stained with an anti-Brdu antibody.

In the next experiment the test system is mouse islets. Description: MTT assay of cell metabolism and mitochondrial function in isolated islets. Format: cell-based. The settings on record: LSF 50 μM, Ex-4 20 nM. How it is done:
FIG. 3 depicts the effect of mitochondrial metabolism (as reflected by level of MTT metabolite) observed in isolated mouse islets after individual and combined treatment with LSF and Ex-4.
as §1
We previously published, in murine β-cell lines and human islets that both ATP production and mitochondrial metabolism (MTT metabolite levels) were increased by LSF treatment.
Background: Tetrazolium assays rely on reduction of a dye to a coloured formazan, in cell work by metabolically active cells.

Another experiment has as its system BALB/c pancreatic islets. As to the kind of experiment: Insulin secretion of isolated islets in low and high glucose (EIA/ELISA). Format: cell-based, mouse. The conditions noted are these: 3 days culture, LSF 50 μM, Ex-4 20 nM, 3 mM then 28 mM glucose, one-hour incubation. How it is done: FIG. 1 depicts the amount of insulin in the supernate sample as determined by EIA after one-hour incubation with each of 3 mM and subsequent 28 mM glucose medium.
as §1
(See FIG. 1 in which “*” and “^” indicate P<0.005 compared to “none” treatment group).
For orientation: ELISA stands for enzyme-linked immunosorbent assay.

Entries after “also recorded” stand apart in the source; their conditions may differ. Where no end group is shown, it is not given here.

Turning to “glucagon-like peptide-1 (HAEGTFTSDVSSYLEGQAAKEFIAWLVKGR; ends and bridges not checked; UniProt P01275 98-127, looked up) [GLP-1, "incretin synthesized in the small and large intestine by the L-type cells ... released in response to food ingestion"]”, the effect on hyperglycemia result in experiment [1] is given as “no effect”.
For `C[C@@H](O)CCCCn1c(=O)c2c(ncn2C)n(C)c1=O` [LSF, Lisofylline], the “ATP production and mitochondrial metabolism (MTT metabolite levels)” value in the experiment on human islets and in the experiment on murine β-cell lines was “increased” throughout. In addition, in experiment [2] (diabetic NOD mice, S.C. mini-pump), the “time after pump implantation until diabetes reversal / hyperglycemia controlled” value lay in the range of 10 to 12 days. Besides, the “diabetes reversal / control of hyperglycemia during pump therapy” value in experiment [2] (newly diagnosed diabetic NOD mice, S.C. osmotic mini-pump, 28 days) was “moderate ability to control blood glucose levels; also recorded: prevented worsening of hyperglycemia”. Also, in experiment [3], the “protection of islet cells from pro-inflammatory cytokines” value is “could protect isolated islet cells”. For the same compound, in experiment [4], the “Brdu-positive cells in pancreatic tissue” value is on record as “detected”. Also, the “mitochondrial metabolism (MTT metabolite level)” value in the experiment on mouse islets is “increase mitochondrial metabolism”. Besides, the “insulin release upon glucose stimulation” value in the experiment on BALB/c pancreatic islets is recorded as “increase insulin release”.

The values are drawn from patent publication US7393827B2, “Pharmaceutical compositions and methods for restoring β-cell mass and function” (Diakine Therapeutics, Inc., priority 2004, dated 2008).
